Laboratory results as given in patent EP4003298B1 (Offhealth S.p.A., priority 2019, dated 2021).

What was measured:
[1] = test system: IL-1α; assay: IL-1α release ELISA on SLS-irritated reconstructed human epidermis; assay type: cell-based; settings: positive control SLS 0.25% only
Protocol: The assay was performed in two replicates.
In this study IL-1α was determined in the culture medium of treated and untreated epidermis, using a direct ELIS assay (enzyme-linked immuno-absorbent assay). The colorimetric signal is directly proportional to the amount of cytokine in the culture medium. The samples are read at 450 nm. The detection limit is less than 10 pg/ml.
Cytokine concentration is determined using a standard curve. The inhibition of IL-1α release was determined as: % of IL-1α inhibition: 100−(pg/ml IL−1α released from irritated; samples/pg/ml IL−1α positive control)*100 [formula]

[2] = test system: reconstructed human epidermis; settings: 24 h
Protocol: The assay included a prime MTT assay at the end of the incubation: cell survival assay using the reconstructed in vitro 3D artificial human epidermis to assess the cytotoxic potential of the sample.
The in vitro test systems used consist of an artificial three-dimensional system of the human epidermis. A reconstructed model of artificial human skin was prepared comprising normal human epidermal keratinocytes, which was grown as an integrated three-dimensional cell culture model, perfectly mimicking human skin in vitro.
The epidermis was pre-treated for 60 minutes with 0.25% SLS and was obtained in order to induce the synthesis and release of IL-1α. Later 30 µl of the formulation object of the invention was applied on two portions of the epidermis in two replicates, and the exposure was carried out for 24 hours at 37°C, 5% C02. […]
The epidermal units are treated with 1 mg of MD (3-4,5-dimethyl-thiazol-2-yl)-2,5-diphenyl-tetrazolium bromide) solution for 3 hours at 37°C. The solution is then removed and replaced with isopropanol, with a further 2 hours of incubation at room temperature; 2 aliquots of each sample are transferred to a 96-well plate for reading. The absorbance is read at the 570 nm wavelength with a colorimeter (Tecan Sunrise remote model) provided with a microplate reader. […]

CCCCCCCCCCCCOS(=O)(=O)[O-].[Na+] [SLS, sodium lauryl sulfate]
IL-1α pg/ml average ([1]; 6h): 79.17 pg/mL
IL-1α pg/ml average ([1]; 24h): 233.86 pg/mL
% Average cell viability (ds) [2]: 65.79 (0.45) %
